The EC50 is the concentration that produces a half-maximal response. A low value points to a more potent agent.

We go through 14 molecules from ChEMBL document CHEMBL1136755, “Mapping property distributions of molecular surfaces: algorithm and evaluation of a novel 3D quantitative structure-activity relationship technique” (J Med Chem, 2003).

Molecules are shown by their SMILES.

Experiment [1] has as its target T1, Muscarinic acetylcholine receptor M2 (Sus scrofa, UniProt P06199).
T1 sequence (P06199 whole entry): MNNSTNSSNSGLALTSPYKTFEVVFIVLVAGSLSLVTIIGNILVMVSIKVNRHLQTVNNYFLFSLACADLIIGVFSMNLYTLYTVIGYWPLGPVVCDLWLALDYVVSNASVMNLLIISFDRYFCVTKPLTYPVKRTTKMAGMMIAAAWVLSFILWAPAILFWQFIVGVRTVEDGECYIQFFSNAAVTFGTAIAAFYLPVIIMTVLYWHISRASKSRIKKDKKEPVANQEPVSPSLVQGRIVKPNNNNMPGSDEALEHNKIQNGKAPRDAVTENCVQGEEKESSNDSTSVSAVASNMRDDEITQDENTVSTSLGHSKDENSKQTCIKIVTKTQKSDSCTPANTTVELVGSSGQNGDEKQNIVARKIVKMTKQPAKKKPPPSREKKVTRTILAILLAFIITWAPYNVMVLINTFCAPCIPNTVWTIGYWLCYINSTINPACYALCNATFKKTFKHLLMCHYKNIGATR
As to the kind of experiment: Ability to dissociate radioligand [3H]NMS from muscarinic acetylcholine receptor M2 of porcine heart.

The target of experiment [2] is T2, Corticosteroid-binding globulin (Homo sapiens) (UniProt P08185).
T2 sequence (whole entry): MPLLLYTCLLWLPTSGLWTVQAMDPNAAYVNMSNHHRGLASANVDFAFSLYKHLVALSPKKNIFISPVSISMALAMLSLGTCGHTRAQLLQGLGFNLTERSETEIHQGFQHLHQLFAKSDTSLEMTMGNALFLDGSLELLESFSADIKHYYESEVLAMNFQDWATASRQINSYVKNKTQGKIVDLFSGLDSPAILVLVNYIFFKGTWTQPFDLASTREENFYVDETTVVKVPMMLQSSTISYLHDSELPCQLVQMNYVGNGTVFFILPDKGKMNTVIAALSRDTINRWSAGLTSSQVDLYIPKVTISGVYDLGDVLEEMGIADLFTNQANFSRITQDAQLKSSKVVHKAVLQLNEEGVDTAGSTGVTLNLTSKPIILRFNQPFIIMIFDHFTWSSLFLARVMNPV
Description: Binding affinity towards corticosteroid binding globulin (CBG)

`C[N+](C)(CCCCCCC[N+](C)(C)CCCN1C(=O)[C@@H]2CCCC[C@H]2C1=O)CCCN1C(=O)[C@H]2CCCC[C@@H]2C1=O` showed an EC50 in experiment [1] of 800 nM.

For `CC1CC(=O)N(CCC[N+](C)(C)CCCCCCC[N+](C)(C)CCCN2C(=O)CC(C)C2=O)C1=O` (centres undefined), it took 32000 nM to reach a half-maximal effect in experiment [1] (EC50).

With `C[N+](C)(CCCCCCO)CCCN1C(=O)c2ccccc2C1=O`, the concentration giving a half-maximal response (EC50) in experiment [1] was 24000 nM.

The molecule `N#CCCN(CCCCCCN(CCC#N)CCCN1C(=O)c2ccccc2C1=O)CCCN1C(=O)c2ccccc2C1=O` gave a concentration for a half-maximal effect (EC50) in experiment [1] of 740 nM.

On to `O=C1c2ccccc2C(=O)N1CCCN(CCCCCCN(CCCc1ccccc1)CCCN1C(=O)c2ccccc2C1=O)CCCc1ccccc1`, for which the midpoint of the response in experiment [1], the EC50, lay at 991 nM.

In the case of `CCOC(=O)CCCCCC[N+](C)(C)CCCN1C(=O)c2ccccc2C1=O`, the EC50 in experiment [1] was 111000 nM.

The molecule `C[C@@H]1C(=O)N(CCC[N+](C)(C)CCCCCCC[N+](C)(C)CCCN2C(=O)[C@H](C)[C@@H](C)C2=O)C(=O)[C@H]1C` gave an EC50 in experiment [1] of 12100 nM.

In experiment [2], `C[C@]12CCC(=O)C=C1CC[C@@H]1[C@@H]2[C@@H](O)C[C@]2(C=O)[C@@H](C(=O)CO)CC[C@@H]12` registered a Log K of 6.28.

The molecule `O=C1c2ccccc2C(=O)N1CCCN(CCCCCCN(CCCN1C(=O)c2ccccc2C1=O)C1CCCCC1)C1CCCCC1` showed an EC50 in experiment [1] of 45 nM.

For the molecule `C[N+](C)(CCCCCCC[N+](C)(C)CCCN1C(=O)[C@H]2CC=CC[C@H]2C1=O)CCCN1C(=O)[C@H]2CC=CC[C@H]2C1=O`, it took 2200 nM to reach a half-maximal effect in experiment [1] (EC50).

In experiment [1], `COc1ccc(CCN(C)CCCC(C#N)(c2ccc(OC)c(OC)c2)C(C)C)cc1OC` (centres undefined) gave an EC50 of 31000 nM.

As to `Cc1ccc2c(c1)C(=O)N(CCCN(CCCCCCN(CCCN1C(=O)c3ccc(C)cc3C1=O)C1CCCCC1)C1CCCCC1)C2=O`, a half-maximal response in experiment [1] (EC50) required 60 nM.

In experiment [1], `C[N+](C)(CCCCCC[N+](C)(C)CCCN1C(=O)c2cccc3cccc(c23)C1=O)CCCN1C(=O)c2ccccc2C1=O` gave an EC50 of 63.1 nM.

Consider `C[N+](C)(CCCCCCC[N+](C)(C)CCCN1C(=O)CCC1=O)CCCN1C(=O)CCC1=O`, for which the EC50 in experiment [1] is 151000 nM.
